Assay: Solubility tests of biocides in different solvents
Text: The solubility of various herbicides, fungicides and insecticides has been tested using different solvents.

[1] = in 100 ml of solvent C8-C10 fatty acid dimethyl amide (1:1) (Example 11)
[2] = in 100 ml of solvent C8-C10 fatty acid methyl ester (Comparative Example C14)
[3] = in 100 ml of solvent C8 fatty acid dimethylamide (Example 9)
[4] = in 100 ml of solvent C10 fatty acid dimethyl amide (Example 10)
[5] = in 100 ml of solvent C18 fatty acid dimethyl amide (Comparative Example C13)

Molecule `CCOc1cc(Oc2ccc(C(F)(F)F)cc2Cl)ccc1[N+](=O)[O-]` [Oxyfluorfen] has a Solubility (in 100 ml of solvent C6-C12 fatty alcohol + 6PO (Comparative Example C4)) of 10 percent by weight, a Solubility (in 100 ml of solvent C6 fatty acid dimethyl amide (Comparative Example C1)) of 12 percent by weight and a Solubility (in 100 ml of solvent C8-C10 fatty acid dimethyl amide (1:1) (Example 3)) of 31 percent by weight. For the same molecule, the Solubility (in 100 ml of solvent C8-C10 fatty acid methyl ester (Comparative Example C3)) was 3 percent by weight, the Solubility (in 100 ml of solvent C8 fatty acid dimethylamide (Example 1)) was 25 percent by weight and the Solubility (in 100 ml of solvent C10 fatty acid dimethyl amide (Example 2)) was 28 percent by weight. The Solubility (in 100 ml of solvent C12-C15 benzoate (Comparative Example C5)) was 7 percent by weight, the Solubility (in 100 ml of solvent C12 fatty acid dimethyl amide (Example 4)) was 27 percent by weight and the Solubility (in 100 ml of solvent C18 fatty acid dimethyl amide (Comparative Example C2)) was 19 percent by weight. For the same molecule, the Solubility (in 100 ml of solvent Di-C8 alkyl carbonate (Comparative Example C6)) was 4 percent by weight.
For `Cc1c(COC(=O)[C@@H]2[C@H](/C=C(\Cl)C(F)(F)F)C2(C)C)cccc1-c1ccccc1` (racemic) [Bifenthrin], the Solubility [1] was 34 percent by weight, the Solubility [2] was 0 percent by weight and the Solubility [3] was 30 percent by weight. The Solubility [4] was 31 percent by weight and the Solubility [5] was 10 percent by weight.
`CC(C)(C)C(O)(CCc1ccc(Cl)cc1)Cn1cncn1` (stereo not drawn) [Tebucanazole] showed a Solubility (in 100 ml of solvent C6 fatty acid dimethyl amide (Comparative Example C7)) of 18 percent by weight, a Solubility (in 100 ml of solvent C8-C10 fatty acid dimethyl amide (1:1) (Example 7)) of 39 percent by weight and a Solubility (in 100 ml of solvent C8-C10 fatty acid methyl ester (Comparative Example C9)) of 9 percent by weight. It also gave a Solubility (in 100 ml of solvent C8 fatty acid dimethylamide (Example 5)) of 30 percent by weight, a Solubility (in 100 ml of solvent C10 fatty acid dimethyl amide (Example 6)) of 33 percent by weight and a Solubility (in 100 ml of solvent C12 fatty acid dimethyl amide (Example 8)) of 35 percent by weight. It also gave a Solubility (in 100 ml of solvent C18 fatty acid dimethyl amide (Comparative Example C8)) of 22 percent by weight, a Solubility (in 100 ml of solvent Di-C8 alkyl carbonate (Comparative Example C11)) of 2 percent by weight and a Solubility (in 100 ml of solvent Di-C8 alkyl ether (Comparative Example C12)) of 2 percent by weight. The Solubility (in 100 ml of solvent Triacetin (Comparative Example C10)) was 6 percent by weight.
`O=C(NC(=O)c1c(F)cccc1F)Nc1ccc(OC(F)(F)C(F)OC(F)(F)F)c(Cl)c1` (stereo not drawn) [Novaluron] showed a Solubility [1] of 32 percent by weight, a Solubility [2] of 1 percent by weight and a Solubility [3] of 28 percent by weight. It also gave a Solubility [4] of 28 percent by weight and a Solubility [5] of 8 percent by weight.
